Assay results: ChEMBL document CHEMBL5352461, “Discovery of the novel Benzo[b]thiophene 1,1-dioxide derivatives as a potent STAT3 inhibitor against idiopathic pulmonary fibrosis” (Eur J Med Chem, 2023)
Calls of active or inactive are those of the source. No cut-off for these calls is given here.

What was measured:
NIH3T3 = assay: Antiproliferative activity against mouse NIH3T3 cells assessed as cell growth inhibition incubated for 24 to 72 hrs by CCK-8 assay; assay type: functional, cell-based
A549 [1] = assay: Induction of morphological changes in TGF-beta1 induced human A549 cells assessed as appearance of spindle shape cells at 200 nM measured for 24 hrs by phase contrast microscopy analysis; assay type: functional, cell-based
A549 [2] = assay: Inhibition of cell migration in TGF-beta1 induced human A549 cells measured for 24 hrs by contrast-phase microscopic analysis; assay type: functional, cell-based
Mus musculus [3] = species: Mus musculus; assay: Antifibrotic activity against bleomycin-induced C57BL/6 mouse lung fibrosis model assessed as reduction in CD4-CD69+ T cell in lung incubated for 30 mins by flow cytometry analysis ( Rvb = 6.54%); assay type: functional; parameters: scale not given: the % may be the effect or the level left; conditions: 0.5 h
Mus musculus [4] = species: Mus musculus; assay: Antifibrotic activity against bleomycin-induced C57BL/6 mouse lung fibrosis model assessed as reduction in F4/80+CD11b+ macrophage in lung incubated for 30 mins by flow cytometry analysis ( Rvb = 17.96%); assay type: functional; parameters: scale not given: the % may be the effect or the level left; conditions: 0.5 h
Mus musculus [5] = species: Mus musculus; assay: Antifibrotic activity against bleomycin-induced C57BL/6 mouse lung fibrosis model assessed as reduction in CD11c+MHC II+ in dendritic cells in lung incubated for 30 mins by flow cytometry analysis ( Rvb = 23.67 %); assay type: functional; parameters: scale not given: the % may be the effect or the level left; conditions: 0.5 h

Row | SMILES | IC50 (NIH3T3) | further results
1 | O=C(NC1CCN(C(=O)C2=Cc3ccccc3S2(=O)=O)CC1)c1ccc(Cl)cc1 | 6260 nM | 
2 | O=C(C1=Cc2ccccc2S1(=O)=O)N1CCN(C(=O)c2ccc(N3CCOCC3)nc2)CC1 | 2490 nM | 
3 | O=C(C1=Cc2ccccc2S1(=O)=O)N1CCN(S(=O)(=O)c2ccc3c(c2)CCO3)CC1 | 8890 nM | 
4 | O=C(C1=Cc2ccccc2S1(=O)=O)N1CCN(C(=O)c2ccc(F)cn2)CC1 | 2090 nM | 
5 | COc1ccc(CN2CCN(C(=O)C3=Cc4ccccc4S3(=O)=O)CC2)cc1 | 1780 nM | 
6 | COC(=O)c1cccc(CN2CCN(C(=O)C3=Cc4ccccc4S3(=O)=O)CC2)c1 | 1400 nM | 
7 | O=C(Cc1cccc2c1CCO2)NC1CCN(C(=O)C2=Cc3ccccc3S2(=O)=O)CC1 | 3980 nM | 
8 | O=[N+]([O-])c1ccc2c(c1)S(=O)(=O)C=C2 | 1180 nM | Activity (A549 [1]): Active; inhibition (A549 [2]): Active
9 | O=C(C1=Cc2ccccc2S1(=O)=O)N1CCN(S(=O)(=O)c2cccs2)CC1 | 3870 nM | 
10 | O=C(NC1CCN(C(=O)C2=Cc3ccccc3S2(=O)=O)CC1)c1cccc(Cl)c1 | 6760 nM | 
11 | O=C(C1=Cc2ccccc2S1(=O)=O)N1CCN(C(=O)c2cccnc2N2CCOCC2)CC1 | 3420 nM | 
12 | O=C(C1=Cc2ccccc2S1(=O)=O)N1CCN(Cc2ccc(C(F)(F)F)cc2)CC1 | 1460 nM | 
13 | Cc1cccc(CN2CCN(C(=O)C3=Cc4ccccc4S3(=O)=O)CC2)c1 | 2550 nM | 
14 | O=C(C1=Cc2ccccc2S1(=O)=O)N1CCN(C(=O)c2cccnc2)CC1 | 8450 nM | 
15 | Cc1noc(C)c1S(=O)(=O)N1CCN(C(=O)C2=Cc3ccccc3S2(=O)=O)CC1 | 1470 nM | 
16 | CC(C)(C)OC(=O)n1cc(CN2CCN(C(=O)C3=Cc4ccccc4S3(=O)=O)CC2)c2ccccc21 | 5120 nM | 
17 | O=C(C1=Cc2ccccc2S1(=O)=O)N1CCN(S(=O)(=O)C2CCCCC2)CC1 | 8920 nM | 
18 | COC(=O)c1ccc(CN2CCN(C(=O)C3=Cc4ccccc4S3(=O)=O)CC2)cc1 | 630 nM | 
19 | O=C(C1=Cc2ccccc2S1(=O)=O)N1CCN(Cc2ccc(C(F)(F)F)o2)CC1 | 1900 nM | 
20 | Cc1ccc(CN2CCN(C(=O)C3=Cc4ccccc4S3(=O)=O)CC2)cc1 | 1660 nM | 
21 | Cc1nc(C)c(C(=O)NC2CCN(C(=O)C3=Cc4ccccc4S3(=O)=O)CC2)nc1C | 2130 nM | 
22 | O=C(C1=Cc2ccccc2S1(=O)=O)N1CCN(Cc2ccc(Cl)cc2)CC1 | 2010 nM | 
23 | O=C(CC1CCCCC1)NC1CCN(C(=O)C2=Cc3ccccc3S2(=O)=O)CC1 | > 10000 nM | 
24 | O=C(C1=Cc2ccccc2S1(=O)=O)N1CCN(S(=O)(=O)c2cc(F)cc(F)c2)CC1 | 1450 nM | 
25 | COc1cc(CN2CCN(C(=O)C3=Cc4ccccc4S3(=O)=O)CC2)cc(OC)c1 | 1110 nM | 

Row | SMILES | IC50 (NIH3T3) | further results
26 | O=C(C1=Cc2ccccc2S1(=O)=O)N1CCN(Cc2ccc3ccccc3c2)CC1 | 6780 nM | 
27 | CC(C)(C)OC(=O)N1CCOC(C(=O)N2CCN(C(=O)C3=Cc4ccccc4S3(=O)=O)CC2)C1 (centres undefined) | 5230 nM | 
28 | COC(=O)c1sccc1S(=O)(=O)N1CCN(C(=O)C2=Cc3ccccc3S2(=O)=O)CC1 | 4480 nM | 
29 | O=C(C1=Cc2ccccc2S1(=O)=O)N1CCN(Cc2cccc(F)c2)CC1 | 950 nM | 
30 | O=C(C1=Cc2ccccc2S1(=O)=O)N1CCN(Cc2c(F)c(F)c(F)c(F)c2F)CC1 | 1290 nM | 
31 | COC(=O)c1ccc2c(c1)NC(=O)/C2=C(\Nc1ccc(N(C)C(=O)CN2CCN(C)CC2)cc1)c1ccccc1 [NINTEDANIB] | 2410 nM | Activity (Mus musculus [3]): 3.55%; Activity (Mus musculus [4]): 12.36%; Activity (Mus musculus [5]): 20.61%
32 | O=C(C1=Cc2ccccc2S1(=O)=O)N1CCN(Cc2ccc(-c3ccccc3)cc2)CC1 | 6470 nM | 
33 | O=C(C1=Cc2ccccc2S1(=O)=O)N1CCN(Cc2cccc(C(F)(F)F)c2)CC1 | 1320 nM | 
34 | O=C(C1=Cc2ccccc2S1(=O)=O)N1CCN(Cc2cc(F)c(F)c(F)c2F)CC1 | 1260 nM | 
35 | O=C(C1=Cc2ccccc2S1(=O)=O)N1CCN(Cc2ccccc2F)CC1 | 1000 nM | 
36 | O=C(Cc1cccc([N+](=O)[O-])c1)NC1CCN(C(=O)C2=Cc3ccccc3S2(=O)=O)CC1 | > 10000 nM | 
37 | O=C(Cc1ccccc1[N+](=O)[O-])NC1CCN(C(=O)C2=Cc3ccccc3S2(=O)=O)CC1 | > 10000 nM | 
38 | CN(C)c1ccc(CC(=O)NC2CCN(C(=O)C3=Cc4ccccc4S3(=O)=O)CC2)cc1 | > 10000 nM | 
39 | O=C(C1=Cc2ccccc2S1(=O)=O)N1CCN(S(=O)(=O)c2ccc3ccccc3c2)CC1 | > 10000 nM | 
40 | O=C(C1=Cc2ccccc2S1(=O)=O)N1CCN(C(=O)c2cc(F)c(F)cc2F)CC1 | 870 nM | 
41 | O=C(Cc1cccc(C2CC2)c1)N1CCN(C(=O)C2=Cc3ccccc3S2(=O)=O)CC1 | 1750 nM | 
42 | O=C(CC1CCCC1)NC1CCN(C(=O)C2=Cc3ccccc3S2(=O)=O)CC1 | > 10000 nM | 
43 | COC(=O)c1ccc(CN2CCN(C(=O)C3=Cc4ccccc4S3(=O)=O)CC2)cc1OC | 1240 nM | 
44 | O=C(CN1CCOCC1)NC1CCN(C(=O)C2=Cc3ccccc3S2(=O)=O)CC1 | 4850 nM | 
45 | O=C(C1=Cc2ccccc2S1(=O)=O)N1CCN(C(=O)c2scnc2Br)CC1 | 810 nM | 
46 | O=C(C1=Cc2ccccc2S1(=O)=O)N1CCN(C(=O)c2cc3ccccc3o2)CC1 | 1220 nM | 
47 | O=C(C1=Cc2ccccc2S1(=O)=O)N1CCN(Cc2ccc(S(=O)(=O)C(F)(F)F)cc2)CC1 | 1790 nM | 
48 | COS(=O)(=O)c1ccc(CN2CCN(C(=O)C3=Cc4ccccc4S3(=O)=O)CC2)cc1 | 930 nM | 
49 | O=C(C1=Cc2ccccc2S1(=O)=O)N1CCN(C(=O)c2ccccn2)CC1 | 6020 nM | 
